Common to all, as to format: cell-based
Assay [1] concerns homologous recombination (HR) repair of Cas9 DSB in HEK293FT cells. Kind of assay: RepairSwitch assay, rate of HR (EGFP to BFP switch, flow cytometry). The note with it: for IC50: RepairSwitch, 1 week after transfection, read-out: IC50 for inhibition of HR rate; for Effect on rate of HR: dose range 1 nm to 10 uM. Here is the method:
(§1) All cell lines were plated in 12-well plates at 2.5E5 cells/well in their respective growth mediums. The growth medium was then replaced after 24-48 hours and the cells were transfected with lug of CRISPR/Cas9 gRNA construct, lug of HR repair template, or both gRNA and HR repair template (2 ug total) in combination using FuGENE HD (Promega) at a FuGENE to DNA ratio of 3:1. The DNA was mixed with Opti-MEM (50 ul Opti-MEM/ug DNA) and FuGENE was added for an incubation period of 15 minutes before being added dropwise to the well. If drug is being utilized, cells are dosed immediately prior to transfection. Fresh growth medium was replaced every 48-72 hours. Cells were kept in culture for 1 week before assessment of fluorescence via flow cytometry.
(§2) All drugs were dissolved in DMSO as per Selleck instructions. For cell-based work drugs were diluted to a final concentration of 0.001% DMSO. All drugs were given in a dose range of 1 nm to 10 uM, unless toxicity was shown in Incucyte proliferation assays (S1, S2).
(§3) Medium was removed from 12-well plates and cells were detached from plate using TrypLE Express. FBS containing medium was used to neutralize TrypLE Express and cells were collected and spun down at 1000 RPM for 5 min. Cell pellets were then washed with PBS twice before resuspension in 500 ul PBS and put on ice. Prior to flow of each sample, cells were resuspended and put through a cell-strainer cap on the flow tube. Cells were gated to ensure single cell population as well as high DsRed expression. For each sample, 10,000-30,000 high DsRed expressing cells were counted depending on sample concentration, and assessed for both EGFP and BFP expression. FlowJo was utilized to analyze all flow cytometry results and to produce statistics on each population.
Graphpad Prism was utilized to visualize statistical results from FlowJo. Additionally, it was utilized to provide statistical analyses of p value using unpaired t-tests.
The RepairSwitch assay was developed to measure the balance of HR- and NHEJ-mediated double-strand break (DSB) repair. To accomplish this, it was necessary to design assay vectors that could be lenti-virally transduced into cells and would thereby be incorporated into the genome. […] Additionally, it allowed DsRed to serve as a transduction control to ensure vector integration at an MOI of 0.3, while EGFP served as a target for CRISPR/Cas9 induced DSB. […] Additionally, in conjunction with the administration of the CRISPR/Cas9 EGFP gRNA, exogenous single stranded DNA oligos were administered in excess and act as the repair template. In this system, the resulting fluorescence, post CRISPR/Cas9 cutting at the target locus, is dependent on the method of repair. Upon utilization of the repair template in repair via homologous recombination (HR) the resulting locus will be converted from EGFP to BFP. This is possible due to the sequence similarity of these fluorescent proteins, which differ in only two bases, resulting in the substitution of two adjacent amino acids. […] Either, the EGFP fluorescence will be extinguished due to the error prone repair, or it is possible for the EGFP protein to be repaired correctly or with a silent mutation via NHEJ, thereby producing a viable fluorescent signal. […] A schematic of the RepairSwitch assay readout (FIG. 1B) provides a concise overview of the possible fluorescent outcomes and their respective implications.
(In general: In flow cytometry, cells or beads pass a laser one at a time.)

The test system of assay [2] is non-homologous end joining (NHEJ) repair of Cas9 DSB in HCT116 cells. The assay can be described thus: RepairSwitch assay, rate of NHEJ (loss of EGFP, flow cytometry). Here is the method:
(§4) All cell lines were plated in 12-well plates at 2.5E5 cells/well in their respective growth mediums. […]. The DNA was mixed with Opti-MEM (50 ul Opti-MEM/ug DNA) and FuGENE was added for an incubation period of 15 minutes before being added dropwise to the well. If drug is being utilized, cells are dosed immediately prior to transfection. Fresh growth medium was replaced every 48-72 hours. Cells were kept in culture for 1 week before assessment of fluorescence via flow cytometry.
(§5) All compounds used can be found listed in Table 1, and all were purchased from Selleck. All drugs were dissolved in DMSO as per Selleck instructions. […].
Medium was removed from 12-well plates and cells were detached from plate using TrypLE Express. […] For each sample, 10,000-30,000 high DsRed expressing cells were counted depending on sample concentration, and assessed for both EGFP and BFP expression. […]
The RepairSwitch assay was developed to measure the balance of HR- and NHEJ-mediated double-strand break (DSB) repair. […] In this system, the resulting fluorescence, post CRISPR/Cas9 cutting at the target locus, is dependent on the method of repair. […] Either, the EGFP fluorescence will be extinguished due to the error prone repair, or it is possible for the EGFP protein to be repaired correctly or with a silent mutation via NHEJ, thereby producing a viable fluorescent signal. […]

The subject of assay [3] is homologous recombination (HR) repair of Cas9 DSB in HCT116 cells. The assay can be described thus: cells. The note with it: for Effect on rate of HR: HCT116 cells. Here is the method:
as §4, §5, §3
Graphpad Prism was utilized to visualize statistical results from FlowJo. […]
(§6) The RepairSwitch assay was developed to measure the balance of HR- and NHEJ-mediated double-strand break (DSB) repair. […] In this system, the resulting fluorescence, post CRISPR/Cas9 cutting at the target locus, is dependent on the method of repair. […] Either, the EGFP fluorescence will be extinguished due to the error prone repair, or it is possible for the EGFP protein to be repaired correctly or with a silent mutation via NHEJ, thereby producing a viable fluorescent signal. […] A schematic of the RepairSwitch assay readout (FIG. 1B) provides a concise overview of the possible fluorescent outcomes and their respective implications.

The subject of assay [4] is non-homologous end joining (NHEJ) repair of Cas9 DSB in HEK293FT cells. The assay can be described thus: RepairSwitch assay, rate of NHEJ (loss of EGFP, flow cytometry). Particulars: dose range 1 nm to 10 uM. Here is the method:
as §1, §2
Medium was removed from 12-well plates and cells were detached from plate using TrypLE Express. FBS containing medium was used to neutralize TrypLE Express and cells were collected and spun down at 1000 RPM for 5 min. […] For each sample, 10,000-30,000 high DsRed expressing cells were counted depending on sample concentration, and assessed for both EGFP and BFP expression. […]
as §6

The IC50 is the concentration needed to halve the response being measured.

“Also recorded” adds a separate entry of the source. Like-named read-outs stand apart in the source and are kept apart here.

As to `Nc1ncn([C@H]2C[C@H](O)[C@@H](CO)O2)c(=O)n1` [Decitabine], the IC50 in assay [1] (168 h) was 187 nM; in assay [3] (Homo sapiens, HCT-116, read-out: IC50 for inhibition of HR rate), 1400 nM. The “Effect on rate of HR” value in assay [1] was “dose responsive decrease in the rates of HR”; in assay [1] (listed as decitabine), “reduced HR”; in assay [3], “also consistent in HCT116 cells”; in assay [3] (listed as decitabine) it was “reduced HR”. Further, the “Effect on rate of NHEJ” value is “also consistent in HCT116 cells” in assay [2], “increased rates of NHEJ” in assay [2] (listed as decitabine), “compensatory increase in the rates of NHEJ” in assay [4] and “increased rates of NHEJ” in assay [4] (listed as decitabine).
Turning to Olaparib, in assay [1], the IC50 was determined as 739 nM; the “Effect on rate of HR” value was “lower potency in modulating HR and NHEJ; also recorded: subtle reduction in rates of HR”. Besides, in assay [4], the “Effect on rate of NHEJ” value is “lower potency in modulating HR and NHEJ; also recorded: subtle increase in the rates of NHEJ”.
